Measured values: paper PMC4770093, “The role of kinetic context in apparent biased agonism at GPCRs” (Nature Communications, 2016)
Values joined by “and” are separate entries in the source; they are usually repeats but may differ in a detail not shown here. Equal entries are not always repeated.

Columns and labels:
D2LR [1] = molecular target: T1, D2LR (Homo sapiens, UniProt P14416); test: xCELLigence cellular impedance (CI) assay; type: cell-based; design: expressed in transfected cells; conditions: for Emax CI: relative to the maximal response of ropinirole
Method in brief: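 Label-free impedance readout in D2LR-expressing cells: 20,000 cells/well grown 16–20 h, then serum-starved 4 h. Cell index recorded every 15 s for 90 min after ligand addition, normalized to the value at addition, with vehicle subtracted.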

D2LR [2] = molecular target: T1, D2LR; test: Inhibition of forskolin-induced cAMP production (BRET CAMYEL biosensor); conditions: for Emax cAMP: relative to the maximal response of ropinirole; for Inhibition of cAMP production measured using a CAMYEL BRET biosensor, Net BRET: single experiments n = 1, 2, 3
Method: Flp-In-CHO cells stably expressing the D2LR were seeded at a density of 2,000,000 cells per 10-cm dish and were transfected the following day using polyethylenimine as the transfection reagent. The cells were transfected with 3 μg CAMYEL, to allow the detection of cAMP levels within the cells. Twenty-four hours after transfection, the cells were plated into 96-well CulturPlates (PerkinElmer) and grown overnight. The cells were equilibrated in Hank's balanced salt solution at 37 °C (or 25 °C when indicated) before starting the experiment. The cells were co-stimulated with the agonists and 10 μM forskolin for the indicated timeframes when the BRET readings were captured. Coelenterazine (Promega) was added at a final concentration of 5 μM at least 3 min before measurement. […] Net BRET was determined by subtraction of the vehicle control co-added with 10 μM forskolin.

D2LR [3] = molecular target: T1, D2LR; test: GαoB G protein activation (BRET); type: cell-based; design: expressed in transfected cells; conditions: for Emax Gao: relative to the maximal response of ropinirole;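 on all read-outs here: Flp-In-CHO cells stably expressing D2LR, transiently transfected, agonist-stimulated in HBSS at 37 °C, net BRET read after coelenterazine, vehicle control subtracted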
Method: G protein activation. Flp-In-CHO cells stably expressing the D2LR were seeded at a density of 2,000,000 cells per 10-cm dish and were transfected the following day using polyethylenimine as the transfection reagent. […] Twenty-four hours after transfection, the cells were plated into 96-well CulturPlates (PerkinElmer) and grown overnight. The cells were equilibrated in Hank's balanced salt solution at 37 °C before starting the experiment. The cells were stimulated with the agonists for the indicated timeframes when the BRET readings were captured. Coelenterazine (Promega) was added at a final concentration of 5 μM at least 3 min before measurement. […] Net BRET was determined by subtraction of the vehicle control from the agonist-induced response.

D2LR [4] = molecular target: T1, D2LR; conditions: 0.1 nM [3H]spiperone; 3 h at 37 °C; 100 μM GppNHp
Method: The cells were harvested in PBS containing 2 mM EDTA and centrifuged at 300 g for 3 min. The resulting pellet was resuspended in ice-cold assay buffer (20 mM HEPES, 100 mM NaCl, 6 mM MgCl2, 1 mM EGTA and 1 mM EDTA pH 7.4) and the centrifugation step was repeated. The intact cell pellet was then resuspended in assay buffer and homogenized using a Polytron homogenizer. After centrifugation (1,000 g, 10 min), the pellet was discarded and the supernatant was recentrifuged at 30,000 g for 1 h at 4 °C using a Sorvall Evolution RC ultracentrifuge (Thermo Scientific). The resulting pellet was resuspended in assay buffer and stored in 250 μl aliquots at −80 °C. Membrane protein concentration was determined using the method of Bradford.
All radioligand binding experiments were conducted at 37 °C in a 1-ml reaction volume in assay buffer (20 mM HEPES, 100 mM NaCl, 6 mM MgCl2, 1 mM EGTA and 1 mM EDTA pH 7.4) containing 100 μM GppNHp and 0.1% ascorbic acid. In all cases, nonspecific binding was determined in the presence of 10 μM haloperidol. […] Filter-bound radioactivity was measured by scintillation spectrometry after the addition of 3.5 ml of Ultima Gold (PerkinElmer) using a Tri-Carb 2900TR liquid scintillation counter (PerkinElmer).
where Y denotes the percentage-specific binding, Top and Bottom denote the maximal and minimal asymptotes, respectively, IC50 denotes the X-value when the response is midway between Bottom and Top, and nH denotes the Hill slope factor. IC50 values obtained from the inhibition curves were converted to Ki values using the Cheng and Prusoff equation[61].

D2LR [5] = molecular target: T1, D2LR; test: β-Arrestin-2 recruitment (BRET); type: cell-based; design: expressed in transfected cells; conditions: 5 minute timepoint
Method: β-Arrestin-2 recruitment. […] To assess β-arrestin-2 recruitment to the D2LR, the cells were transfected with 1 μg Rluc8-tagged D2LR, 4 μg YFP–β-arrestin-2 and 2 μg GRK2. […] The cells were incubated with Coelenterazine (Promega) at a final concentration of 5 μM for 5 min, followed by stimulation with the agonists for an additional 5 min before the BRET readings were captured.

D2LR [6] = molecular target: T1, D2LR; test: ERK1/2 phosphorylation assay (Alphascreen SureFire); type: cell-based; design: expressed in transfected cells; conditions: for alpahscreen assay to detect pERK1/2, counts: agonist 10 μM (cariprazine 1 μM), single experiments n=1 to n=4
Method in brief: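 Phosphorylated ERK1/2 was quantified with the Alphascreen SureFire ERK kit from PerkinElmer. Cells were plated at 50,000 per well in 96-well plates, washed with PBS after 5–7 h, and kept in serum-free DMEM overnight. Ligand dose–response curves were run at 37 °C with 0.1% ascorbic acid. Lysates were shaken 5 min at RT, 5 μl moved to 384-well Proxiplates, and read on a Fusion-TM reader.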

[7] = 5 minute timepoint, Flp-In-CHO-D2LR
[8] = 5 minute timepoint, dopamine as reference agonist

T1 sequence (P14416 whole entry): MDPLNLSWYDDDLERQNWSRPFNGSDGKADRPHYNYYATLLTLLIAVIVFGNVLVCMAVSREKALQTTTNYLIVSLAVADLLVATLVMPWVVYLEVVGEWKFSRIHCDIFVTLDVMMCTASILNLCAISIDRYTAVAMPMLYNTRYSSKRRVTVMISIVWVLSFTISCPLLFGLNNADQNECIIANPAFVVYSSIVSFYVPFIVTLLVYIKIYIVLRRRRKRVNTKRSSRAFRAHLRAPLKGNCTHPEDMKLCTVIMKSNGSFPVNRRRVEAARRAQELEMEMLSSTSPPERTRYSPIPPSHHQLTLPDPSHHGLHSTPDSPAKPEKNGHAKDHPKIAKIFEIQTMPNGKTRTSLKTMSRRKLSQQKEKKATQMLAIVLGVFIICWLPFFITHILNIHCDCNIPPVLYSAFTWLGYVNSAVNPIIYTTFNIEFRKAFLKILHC

Structure (SMILES): CN1CCN(c2cccc3[nH]c(=O)oc23)CC1 [Pardoprunox, pardoprunox]
- pEC50 CI (D2LR [1]; 2 min): 9.30
- Emax CI (D2LR [1]; 2 min): 75 ± 3.6
- pEC50 CI (D2LR [1]; 5 min): 9.41
- Emax CI (D2LR [1]; 5 min): 76 ± 2.7
- Log(τ/KA) Cellular impedance (D2LR [1]; [7]): 9.29 ± 0.06
- ΔLog(τ/KA) Cellular impedance (D2LR [1]; [8]): 0.74 ± 0.07
- pEC50 CI (D2LR [1]; 10 min): 9.22
- Emax CI (D2LR [1]; 10 min): 70 ± 2.2
- pEC50 CI (D2LR [1]; 15 min): 9.20
- Emax CI (D2LR [1]; 15 min): 67 ± 2.5
- pEC50 CI (D2LR [1]; 30 min): 9.06
- Emax CI (D2LR [1]; 30 min): 62 ± 2.9
- pEC50 CI (D2LR [1]; 45 min): 9.02
- Emax CI (D2LR [1]; 45 min): 59 ± 2.4
- pEC50 CI (D2LR [1]; 60 min): 8.95
- Emax CI (D2LR [1]; 60 min): 57 ± 2.2
- pEC50 CI (D2LR [1]; 75 min): 8.87
- Emax CI (D2LR [1]; 75 min): 54 ± 2.1
- pEC50 CI (D2LR [1]; 90 min): 8.80
- Emax CI (D2LR [1]; 90 min): 52 ± 2.0
- pEC50 cAMP (D2LR [2]; 2 min): 8.98
- Emax cAMP (D2LR [2]; 2 min): 87 ± 1.9
- pEC50 cAMP (D2LR [2]; 5 min): 8.69
- Emax cAMP (D2LR [2]; 5 min): 87 ± 1.5
- Log(τ/KA) cAMP (D2LR [2]; [7]): 8.64 ± 0.05
- ΔLog(τ/KA) cAMP (D2LR [2]; [8]): 0.58 ± 0.07
- pEC50 cAMP (D2LR [2]; 10 min): 8.39
- Emax cAMP (D2LR [2]; 10 min): 86 ± 1.4
- pEC50 cAMP (D2LR [2]; 15 min): 8.33
- Emax cAMP (D2LR [2]; 15 min): 87 ± 1.6
- pEC50 cAMP (D2LR [2]; 30 min): 8.46
- Emax cAMP (D2LR [2]; 30 min): 85 ± 2.1
- pEC50 cAMP (D2LR [2]; 45 min): 8.03
- Emax cAMP (D2LR [2]; 45 min): 82 ± 1.4
- pEC50 cAMP (D2LR [2]; 60 min): 7.82
- Emax cAMP (D2LR [2]; 60 min): 74 ± 1.8
- pEC50 cAMP (D2LR [2]; 75 min): 8.04
- Emax cAMP (D2LR [2]; 75 min): 84 ± 2.2
- pEC50 cAMP (D2LR [2]; 90 min): 7.83
- Emax cAMP (D2LR [2]; 90 min): 81 ± 1.6
- Inhibition of cAMP production measured using a CAMYEL BRET biosensor, Net BRET (D2LR [2]; time 2.21667 mins): 0.09312 and 0.1119 and 0.09462
- Inhibition of cAMP production measured using a CAMYEL BRET biosensor, Net BRET (D2LR [2]; time 2.58333 mins): 0.09848 and 0.1094 and 0.0984
- Inhibition of cAMP production measured using a CAMYEL BRET biosensor, Net BRET (D2LR [2]; time 2.95 mins): 0.1044 and 0.1291 and 0.0949
- Inhibition of cAMP production measured using a CAMYEL BRET biosensor, Net BRET (D2LR [2]; time 3.31667 mins): 0.1072 and 0.1248 and 0.1125
- Inhibition of cAMP production measured using a CAMYEL BRET biosensor, Net BRET (D2LR [2]; time 3.68333 mins): 0.1144 and 0.1213 and 0.1135
- Inhibition of cAMP production measured using a CAMYEL BRET biosensor, Net BRET (D2LR [2]; time 4.05 mins): 0.1221 and 0.1382 and 0.1172
- Inhibition of cAMP production measured using a CAMYEL BRET biosensor, Net BRET (D2LR [2]; time 4.41667 mins): 0.1176 and 0.1369 and 0.114
- Inhibition of cAMP production measured using a CAMYEL BRET biosensor, Net BRET (D2LR [2]; time 4.78333 mins): 0.1323 and 0.136 and 0.1109
- Inhibition of cAMP production measured using a CAMYEL BRET biosensor, Net BRET (D2LR [2]; time 5.15 mins): 0.1365 and 0.1389 and 0.1171
- Inhibition of cAMP production measured using a CAMYEL BRET biosensor, Net BRET (D2LR [2]; time 5.51667 mins): 0.1301 and 0.1395 and 0.116
- Inhibition of cAMP production measured using a CAMYEL BRET biosensor, Net BRET (D2LR [2]; time 5.88333 mins): 0.1412 and 0.1297 and 0.1213
- Inhibition of cAMP production measured using a CAMYEL BRET biosensor, Net BRET (D2LR [2]; time 6.25 mins): 0.1339 and 0.1324 and 0.1196
- Inhibition of cAMP production measured using a CAMYEL BRET biosensor, Net BRET (D2LR [2]; time 6.61667 mins): 0.1245 and 0.1374 and 0.113
- Inhibition of cAMP production measured using a CAMYEL BRET biosensor, Net BRET (D2LR [2]; time 6.98333 mins): 0.1378 and 0.1302 and 0.1147
- Inhibition of cAMP production measured using a CAMYEL BRET biosensor, Net BRET (D2LR [2]; time 7.35 mins): 0.1418 and 0.1291 and 0.1123
- Inhibition of cAMP production measured using a CAMYEL BRET biosensor, Net BRET (D2LR [2]; time 7.71667 mins): 0.1394 and 0.1366 and 0.1233
- Inhibition of cAMP production measured using a CAMYEL BRET biosensor, Net BRET (D2LR [2]; time 8.08333 mins): 0.1443 and 0.1378 and 0.1166
- Inhibition of cAMP production measured using a CAMYEL BRET biosensor, Net BRET (D2LR [2]; time 8.45 mins): 0.1408 and 0.1371 and 0.1127
- Inhibition of cAMP production measured using a CAMYEL BRET biosensor, Net BRET (D2LR [2]; time 8.81667 mins): 0.144 and 0.1435 and 0.1231
- Inhibition of cAMP production measured using a CAMYEL BRET biosensor, Net BRET (D2LR [2]; time 9.18333 mins): 0.1482 and 0.1437 and 0.1124
- Inhibition of cAMP production measured using a CAMYEL BRET biosensor, Net BRET (D2LR [2]; time 9.55 mins): 0.1472 and 0.1422 and 0.1225
- Inhibition of cAMP production measured using a CAMYEL BRET biosensor, Net BRET (D2LR [2]; time 9.91667 mins): 0.1503 and 0.1391 and 0.1248
- Inhibition of cAMP production measured using a CAMYEL BRET biosensor, Net BRET (D2LR [2]; time 10.2833 mins): 0.1418 and 0.1435 and 0.1207
- Inhibition of cAMP production measured using a CAMYEL BRET biosensor, Net BRET (D2LR [2]; time 10.65 mins): 0.1434 and 0.1464 and 0.1244
- Inhibition of cAMP production measured using a CAMYEL BRET biosensor, Net BRET (D2LR [2]; time 11.0167 mins): 0.1459 and 0.1412 and 0.1263
- Inhibition of cAMP production measured using a CAMYEL BRET biosensor, Net BRET (D2LR [2]; time 11.3833 mins): 0.1508 and 0.1374 and 0.1263
- Inhibition of cAMP production measured using a CAMYEL BRET biosensor, Net BRET (D2LR [2]; time 11.75 mins): 0.1476 and 0.1469 and 0.1207
- Inhibition of cAMP production measured using a CAMYEL BRET biosensor, Net BRET (D2LR [2]; time 12.1167 mins): 0.1454 and 0.1457 and 0.1265
- Inhibition of cAMP production measured using a CAMYEL BRET biosensor, Net BRET (D2LR [2]; time 12.4833 mins): 0.14 and 0.1421 and 0.1315
- Inhibition of cAMP production measured using a CAMYEL BRET biosensor, Net BRET (D2LR [2]; time 12.85 mins): 0.1413 and 0.1515 and 0.1219
- Inhibition of cAMP production measured using a CAMYEL BRET biosensor, Net BRET (D2LR [2]; time 13.2167 mins): 0.1418 and 0.1452 and 0.1337
- Inhibition of cAMP production measured using a CAMYEL BRET biosensor, Net BRET (D2LR [2]; time 13.5833 mins): 0.1514 and 0.1571 and 0.1315
- Inhibition of cAMP production measured using a CAMYEL BRET biosensor, Net BRET (D2LR [2]; time 13.95 mins): 0.1501 and 0.1517 and 0.1357
- Inhibition of cAMP production measured using a CAMYEL BRET biosensor, Net BRET (D2LR [2]; time 14.3167 mins): 0.1522
- pEC50 Gao (D2LR [3]; 2 min): 7.78
- Emax Gao (D2LR [3]; 2 min): 82 ± 4.5
- pEC50 Gao (D2LR [3]; 5 min): 7.77
- Emax Gao (D2LR [3]; 5 min): 79 ± 4.3
- Log(τ/KA) GαoB activation (D2LR [3]; [7]): 7.70 ± 0.10
- ΔLog(τ/KA) GαoB activation (D2LR [3]; [8]): 0.45 ± 0.13
- pEC50 Gao (D2LR [3]; 10 min): 8.00
- Emax Gao (D2LR [3]; 10 min): 76 ± 3.2
- pEC50 Gao (D2LR [3]; 15 min): 8.21
- Emax Gao (D2LR [3]; 15 min): 81 ± 2.8
- pEC50 Gao (D2LR [3]; 30 min): 8.70
- Emax Gao (D2LR [3]; 30 min): 84 ± 3.1
- pEC50 Gao (D2LR [3]; 45 min): 8.71
- Emax Gao (D2LR [3]; 45 min): 85 ± 3.1
- pEC50 Gao (D2LR [3]; 60 min): 8.64
- Emax Gao (D2LR [3]; 60 min): 86 ± 2.7
- pEC50 Gao (D2LR [3]; 75 min): 8.34
- Emax Gao (D2LR [3]; 75 min): 80 ± 4.9
- pEC50 Gao (D2LR [3]; 90 min): 8.58
- Emax Gao (D2LR [3]; 90 min): 87 ± 2.5
- change in potency over time in the GαoB activation assay (D2LR [3]; time points from 2 to 90 min): sixfold
- pKi (affinity from competition binding experiments using [3H]spiperone) (D2LR [4]): 7.63 ± 0.06
- Log(τ/KA) β-arrestin2 (D2LR [5]; ND = no agonist activity detected): 6.80 ± 0.29
- ΔLog(τ/KA) β-arrestin2 (D2LR [5]; dopamine as reference agonist): 0.47 ± 0.32
- Log(τ/KA) pERK1/2 (D2LR [6]; [7]): 9.06 ± 0.08
- ΔLog(τ/KA) pERK1/2 (D2LR [6]; [8]): 0.50 ± 0.10
- alpahscreen assay to detect pERK1/2, counts (D2LR [6]; time 7.5 mins): 13.2699 counts and 16.7995 counts and 15.0808 counts and 9.987 counts
- alpahscreen assay to detect pERK1/2, counts (D2LR [6]; time 10 mins): 12.5176 counts and 12.8139 counts and 9.935 counts and 7.3291 counts
- alpahscreen assay to detect pERK1/2, counts (D2LR [6]; time 20 mins): 2.97 counts and 3.103 counts and 2.735 counts and 1.953 counts
